This note sets out measurements from patent publication US10239878B2, “Macrocyclic ligands with pendant chelating moieties and complexes thereof” (LUMIPHORE, INC., priority 2016, dated 2019).

A short description of the data set: Stability of 43⋅Eu luminescence in the presence of ca. 25 mM competitors. The format is physicochemical. How it is done: In order for a luminescent metal complex to be useful in a practical sense, it must be stable in the presence of common competitive metal cations and chelating ligands. We measured the stability of 43 ⋅Eu (ca. 7 μM) dissolved in TBS buffer, with various competitors present at ca. 25 mM concentration. Specifically, manganese dichloride tetrahydrate (14.8 mg, 74.8 μmol) was dissolved into TBS buffer (100 μL), and added to an aliquot of 43⋅Eu (3 mL), making the final concentration of Mn(II) 24.1 mM. Magnesium chloride hexahydrate (33.6 mg, 165 μmol) was dissolved into TBS buffer (200 μL), and 100 μL was added to an aliquot of 43⋅Eu (3 mL), making the final concentration of Mg(II) 26.7 mM. Calcium chloride hexahydrate (55.8 mg, 255 μmol) was dissolved into TBS buffer (300 μL), and 100 μL was added to an aliquot of 43 ⋅Eu (3 mL), making the final concentration of Ca(II) 27.4 mM. For DTPA, first KOH (95.9 mg, 1.71 mmol) was dissolved into 1 mL of water, and 389 μL of this basic solution (5 equivalents) was used to dissolve DTPA (52.3 mg, 133 μmol). Then, 219 μL of this DTPA solution was added to an aliquot of 43⋅Eu (3 mL), making the final concentration of DTPA 23.4 mM. EDTA (0.5 M, pH=8, 150 μL) was added to an aliquot of 43 ⋅Eu (3 mL), making the final concentration of EDTA 23.8 mM. For phosphate competition, the methanolic stock of 43⋅Eu was diluted to ca. 7 μM in 25 mM phosphate buffer (pH=8).

In the case of `NCCOCCNC(=O)C1CCCN(C(=O)c2cccc(=O)n2[O-])CCCNC(=O)c2ccc(n([O-])c2=O)C(=O)NC2COCC2NC(=O)c2ccc(c(=O)n2[O-])C(=O)NCCCN1C(=O)c1cccc(=O)n1[O-].[Eu+3]` (mixture of isomers) [43⋅Eu], the “change in sample brightness” value (25 mM phosphate buffer pH=8, 24 hours) was “no detectable change”; the “change in sample brightness” value (Ca(II) 27.4 mM, TBS buffer, 24 hours) was “no detectable change”; the “change in sample brightness” value (Mg(II) 26.7 mM, TBS buffer, 24 hours) was “no detectable change”. Besides, the “brightness remaining (of the original brightness)” value (DTPA 23.4 mM, TBS buffer, after 24 hours) came out at 83%. Moreover, the brightness remaining runs as follows: (EDTA 23.8 mM, TBS buffer, 24 hours) 96%; (Mn(II) 24.1 mM, TBS buffer, 24 hours) 89%.
